# Laboratory results published in US20250283041A1, “METHODS FOR PRODUCING RED BLOOD CELLS” (Albert Einstein College of Medicine, priority 2022, published 2025).
# System: cells from the A4 clone (hemizygous D816V kit iPSC line)
# Assay: Enucleation rate by flow cytometry using DRAQ5 (PSC-RED protocol without SCF and Epo)
# Assay type: cell-based, human
# Settings: clone A4, 200 nM dasatinib introduced starting at day 35, read at day 41; without dasatinib about 18%
# Experimental: Enucleation: The enucleation rate was measured using the DRAQ5 DNA nuclear stain (ThermoFisher) after exclusion of dead cells with Propidium Iodide. The cells were analyzed with an Aurora flow cytometer (Cytek) flow cytometer, and the flow cytometry data were analyzed with the Flowjo software.
# To assess the effect of the D816V kit mutation, control 01 iPSCs were differentiated, and hemizygous clone A4 and homozygous and B34 were randomly selected using the PSC-RED protocol with or without SCF and Epo (FIG. 3A). Dasatinib, which can be used to inhibit the activity of the D816V SCF receptor, was also included in some experiments. Cells were counted once a week, and differentiation was evaluated by flow cytometry, methyl-cellulose assays, and microscopy after Romanowsky staining.
# The rate of enucleation was determined by flow cytometry using DRAQ5, a cell permeant DNA dye. Since no cytokines are necessary after day 17 in the PSC-RED protocol in the absence of SCF and Epo, the only trigger left to induce terminal differentiation is the removal of dexamethasone and introduction of RU-4816, a glucocorticoid antagonist (FIG. 2A).
smiles,measurement,value
Cc1nc(Nc2ncc(C(=O)Nc3c(C)cccc3Cl)s2)cc(N2CCN(CCO)CC2)n1 [dasatinib],enucleation rate,about 25%
